Reference: the supplement of paper PMC13207355
Structures can show the parent of a compound that is named as a salt.

Legend:
Details in all cases: exposure time: 72 h
FT3469 [1] = normal neural stem cell line; assay: phenotypic distance (Euclidean, principal components) from DMSO controls (arbitrary units); higher = stronger morphological change
E28 [2] = patient-derived glioblastoma stem cells of classical subtype; assay: as above
E13 [3] = patient-derived glioblastoma stem cells of classical subtype; assay: as above
E34 [4] = patient-derived glioblastoma stem cells of proneural subtype; assay: as above
E57 [5] = patient-derived glioblastoma stem cells of mesenchymal subtype; assay: as above
E21 [6] = patient-derived glioblastoma stem cells of mesenchymal subtype; assay: as above
E31 [7] = patient-derived glioblastoma stem cells of proneural subtype; assay: as above
FT3469 [8] = assay: surviving fraction (nuclei count normalised to DMSO); higher = more cells surviving (less toxic)
E28 [9] = assay: as above
E13 [10] = assay: as above
E34 [11] = assay: as above
E57 [12] = assay: as above
E21 [13] = assay: as above
E31 [14] = assay: as above
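Throughout, for phenotypic distance (Euclidean, principal components) from DMSO controls: cell Painting imaging in 384-well plates, CellProfiler features reduced to at least 20 principal components, Euclidean distance versus same-plate DMSO vehicle wells (0.1% v/v), median over six images per well.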
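Throughout, for surviving fraction (nuclei count normalised to DMSO): nuclei counted by high-content imaging of Hoechst-stained cells in laminin-coated 384-well plates, relative to 0.1% DMSO vehicle wells, with staurosporine as cell-death control.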

C=C(C)[C@H]1Cc2c(ccc3c2O[C@@H]2COc4cc(OC)c(OC)cc4[C@@H]2C3=O)O1 [Rotenone]
Details | phenotypic distance | surviving fraction
E13 [3], 4.1 nM | 0.548 | –
E13 [3], 12.3 nM | 0.572 | –
E13 [3], 37 nM | 1.04 | –
E13 [3], 111.1 nM | 1.22 | –
E13 [3], 333.3 nM | 2.49 | –
E13 [3], 1000 nM | 3.77 | –
E13 [3], 3000 nM | 6.02 | –
E13 [10], 4.1 nM | – | 1.02
E13 [10], 12.3 nM | – | 0.894
E13 [10], 37 nM | – | 0.83
E13 [10], 111.1 nM | – | 0.771
E13 [10], 333.3 nM | – | 0.632
E13 [10], 1000 nM | – | 0.566
E13 [10], 3000 nM | – | 0.212
E21 [6], 4.1 nM | 0.532 | –
E21 [6], 12.3 nM | 0.585 | –
E21 [6], 37 nM | 0.921 | –
E21 [6], 111.1 nM | 1.37 | –
E21 [6], 333.3 nM | 2.24 | –
E21 [6], 1000 nM | 3.52 | –
E21 [6], 3000 nM | 7.81 | –
E21 [13], 4.1 nM | – | 0.993
E21 [13], 12.3 nM | – | 0.918
E21 [13], 37 nM | – | 0.978
E21 [13], 111.1 nM | – | 0.905
E21 [13], 333.3 nM | – | 0.822
E21 [13], 1000 nM | – | 0.511
E21 [13], 3000 nM | – | 0.147
E28 [2], 4.1 nM | 0.546 | –
E28 [2], 12.3 nM | 0.394 | –
E28 [2], 37 nM | 0.642 | –
E28 [2], 111.1 nM | 0.779 | –
E28 [2], 333.3 nM | 1.31 | –
E28 [2], 1000 nM | 2.44 | –
E28 [2], 3000 nM | 3.1 | –
E28 [9], 4.1 nM | – | 1.05
E28 [9], 12.3 nM | – | 0.989
E28 [9], 37 nM | – | 0.906
E28 [9], 111.1 nM | – | 0.904
E28 [9], 333.3 nM | – | 0.818
E28 [9], 1000 nM | – | 0.648
E28 [9], 3000 nM | – | 0.425
E31 [7], 4.1 nM | 0.668 | –
E31 [7], 12.3 nM | 0.711 | –
E31 [7], 37 nM | 2.14 | –
E31 [7], 111.1 nM | 1.02 | –
E31 [7], 333.3 nM | 1.3 | –
E31 [7], 1000 nM | 2.13 | –
E31 [7], 3000 nM | 5.49 | –
E31 [14], 4.1 nM | – | 0.905
E31 [14], 12.3 nM | – | 0.93
E31 [14], 37 nM | – | 1
E31 [14], 111.1 nM | – | 0.862
E31 [14], 333.3 nM | – | 0.672
E31 [14], 1000 nM | – | 0.385
E31 [14], 3000 nM | – | 0.135
E34 [4], 4.1 nM | 0.805 | –
E34 [4], 12.3 nM | 1 | –
E34 [4], 37 nM | 0.736 | –
E34 [4], 111.1 nM | 0.699 | –
E34 [4], 333.3 nM | 1.76 | –
E34 [4], 1000 nM | 1.95 | –
E34 [4], 3000 nM | 3.52 | –
E34 [11], 4.1 nM | – | 1.04
E34 [11], 12.3 nM | – | 1.04
E34 [11], 37 nM | – | 0.855
E34 [11], 111.1 nM | – | 0.843
E34 [11], 333.3 nM | – | 0.755
E34 [11], 1000 nM | – | 0.786
E34 [11], 3000 nM | – | 0.473
E57 [5], 4.1 nM | 0.304 | –
E57 [5], 12.3 nM | 0.356 | –
E57 [5], 37 nM | 0.67 | –
E57 [5], 111.1 nM | 0.385 | –
E57 [5], 333.3 nM | 1.23 | –
E57 [5], 1000 nM | 1.95 | –
E57 [5], 3000 nM | 6.35 | –
E57 [12], 4.1 nM | – | 1.04
E57 [12], 12.3 nM | – | 1.05
E57 [12], 37 nM | – | 0.983
E57 [12], 111.1 nM | – | 0.959
E57 [12], 333.3 nM | – | 0.941
E57 [12], 1000 nM | – | 0.821
E57 [12], 3000 nM | – | 0.188
FT3469 [1], 4.1 nM | 0.458 | –
FT3469 [1], 12.3 nM | 0.898 | –
FT3469 [1], 37 nM | 0.644 | –
FT3469 [1], 111.1 nM | 1.18 | –
FT3469 [1], 333.3 nM | 1.03 | –
FT3469 [1], 1000 nM | 2.14 | –
FT3469 [1], 3000 nM | 3.61 | –
FT3469 [8], 4.1 nM | – | 1.12
FT3469 [8], 12.3 nM | – | 0.838
FT3469 [8], 37 nM | – | 0.826
FT3469 [8], 111.1 nM | – | 0.877
FT3469 [8], 333.3 nM | – | 0.897
FT3469 [8], 1000 nM | – | 0.744
FT3469 [8], 3000 nM | – | 0.448

CN[C@@H]1[C@@H](O)[C@@H](O[C@@H]2[C@@H](O)[C@H](O[C@H]3OC(CN)=CC[C@H]3N)[C@@H](N)C[C@H]2N)OC[C@]1(C)O [Sisomicin sulfate]
Details | phenotypic distance | surviving fraction
E13 [3], 4.1 nM | 0.369 | –
E13 [3], 12.3 nM | 0.462 | –
E13 [3], 37 nM | 0.472 | –
E13 [3], 111.1 nM | 0.486 | –
E13 [3], 333.3 nM | 0.393 | –
E13 [3], 1000 nM | 0.501 | –
E13 [3], 3000 nM | 0.645 | –
E13 [10], 4.1 nM | – | 1.01
E13 [10], 12.3 nM | – | 0.994
E13 [10], 37 nM | – | 0.923
E13 [10], 111.1 nM | – | 0.949
E13 [10], 333.3 nM | – | 0.983
E13 [10], 1000 nM | – | 1.1
E13 [10], 3000 nM | – | 0.959
E21 [6], 4.1 nM | 0.673 | –
E21 [6], 12.3 nM | 0.75 | –
E21 [6], 37 nM | 0.611 | –
E21 [6], 111.1 nM | 0.334 | –
E21 [6], 333.3 nM | 0.705 | –
E21 [6], 1000 nM | 0.424 | –
E21 [6], 3000 nM | 1.26 | –
E21 [13], 4.1 nM | – | 0.929
E21 [13], 12.3 nM | – | 1.06
E21 [13], 37 nM | – | 0.919
E21 [13], 111.1 nM | – | 0.966
E21 [13], 333.3 nM | – | 1.03
E21 [13], 1000 nM | – | 0.992
E21 [13], 3000 nM | – | 0.864
E28 [2], 4.1 nM | 0.802 | –
E28 [2], 12.3 nM | 0.276 | –
E28 [2], 37 nM | 0.807 | –
E28 [2], 111.1 nM | 0.454 | –
E28 [2], 333.3 nM | 0.891 | –
E28 [2], 1000 nM | 0.259 | –
E28 [2], 3000 nM | 0.736 | –
E28 [9], 4.1 nM | – | 0.849
E28 [9], 12.3 nM | – | 0.982
E28 [9], 37 nM | – | 0.892
E28 [9], 111.1 nM | – | 0.985
E28 [9], 333.3 nM | – | 0.937
E28 [9], 1000 nM | – | 0.984
E28 [9], 3000 nM | – | 0.902
E31 [7], 4.1 nM | 0.521 | –
E31 [7], 12.3 nM | 0.711 | –
E31 [7], 37 nM | 0.705 | –
E31 [7], 111.1 nM | 0.391 | –
E31 [7], 333.3 nM | 0.642 | –
E31 [7], 1000 nM | 0.692 | –
E31 [7], 3000 nM | 0.63 | –
E31 [14], 4.1 nM | – | 0.953
E31 [14], 12.3 nM | – | 0.893
E31 [14], 37 nM | – | 0.996
E31 [14], 111.1 nM | – | 0.985
E31 [14], 333.3 nM | – | 0.92
E31 [14], 1000 nM | – | 0.979
E31 [14], 3000 nM | – | 0.914
E34 [4], 4.1 nM | 1.06 | –
E34 [4], 12.3 nM | 0.852 | –
E34 [4], 37 nM | 0.946 | –
E34 [4], 111.1 nM | 0.273 | –
E34 [4], 333.3 nM | 2.48 | –
E34 [4], 1000 nM | 3.23 | –
E34 [4], 3000 nM | 0.712 | –
E34 [11], 4.1 nM | – | 0.838
E34 [11], 12.3 nM | – | 0.957
E34 [11], 37 nM | – | 0.811
E34 [11], 111.1 nM | – | 0.957
E34 [11], 333.3 nM | – | 0.867
E34 [11], 1000 nM | – | 0.88
E34 [11], 3000 nM | – | 0.901
E57 [5], 4.1 nM | 0.637 | –
E57 [5], 12.3 nM | 0.658 | –
E57 [5], 37 nM | 0.794 | –
E57 [5], 111.1 nM | 0.322 | –
E57 [5], 333.3 nM | 0.595 | –
E57 [5], 1000 nM | 0.802 | –
E57 [5], 3000 nM | 0.686 | –
E57 [12], 4.1 nM | – | 0.973
E57 [12], 12.3 nM | – | 0.964
E57 [12], 37 nM | – | 0.884
E57 [12], 111.1 nM | – | 0.95
E57 [12], 333.3 nM | – | 0.927
E57 [12], 1000 nM | – | 0.919
E57 [12], 3000 nM | – | 0.966
FT3469 [1], 4.1 nM | 0.895 | –
FT3469 [1], 12.3 nM | 0.713 | –
FT3469 [1], 37 nM | 0.549 | –
FT3469 [1], 111.1 nM | 0.66 | –
FT3469 [1], 333.3 nM | 0.495 | –
FT3469 [1], 1000 nM | 0.637 | –
FT3469 [1], 3000 nM | 0.793 | –
FT3469 [8], 4.1 nM | – | 0.936
FT3469 [8], 12.3 nM | – | 1.08
FT3469 [8], 37 nM | – | 1.04
FT3469 [8], 111.1 nM | – | 0.924
FT3469 [8], 333.3 nM | – | 1.08
FT3469 [8], 1000 nM | – | 1.08
FT3469 [8], 3000 nM | – | 1.02
